Values belong to the molecule of their own block, whether it stands above or below them.
Columns and labels:
[1] = In vitro release of sirolimus and cilostazol from single-layer coating; assay type: physicochemical; details: single-layer coating of FIG. 83
[2] = Porcine drug elution PK study of dual drug eluting coating; assay type: in vivo; details: after eight (8) days of implantation, single-layer coating of FIG. 83
Source text: Another critical parameter for the performance of the thrombus resistance of a device coated with cilostazol is the duration of the drug release from the coating. This is of particular significance in the two weeks after device implantation. In the porcine drug elution PK studies of the dual drug eluting coating, both cilostazol and sirolius were slowly released from the coating, resulting in a sustained drug release profile. The purpose of the porcine PK study is to assess the local pharmacokinetics of a drug eluting stent at a given implantation time. Normally three stents are implanted in three different coronary arteries in a pig for a given time point and then retrieved for total drug recovery analysis. The stents are retrieved at predetermined time points; namely, 1, 3 and 8 days. The stents are extracted and the total amount of drug remaining on the stents is determined by analysis utilizing HPLC (high performance liquid chromatography) for total drug amount. The difference between the original amount of drug on the stent and the amount of drug retrieved at a given time represents the amount of drug released in that period. The continuous release of drug into surrounding arterial tissue is what prevents the neointimal growth and restenosis in the coronary artery. A normal plot represents the percentage of total drug released (%, y-axis) vs. time of implantation (day, x-axis). […]

[3] = Drug concentration in liquid formulations (liquid chromatography / HPLC assay); assay type: physicochemical
Source text: In accordance with exemplary embodiments of the present invention, a series of liquid formulations were developed for the local or regional delivery of water insoluble compounds such as sirolimus and its analogs, including CCI-779, ABT-578 and everolimus, through weeping balloons and catheter injection needles. […] These liquid formulations increase the apparent solubility of the pharmacologically active but water insoluble compounds by two to four orders of magnitude as compared to the solubility limits of the compounds in water. These liquid formulations rely on the use of a very small amount of organic solvents such as Ethanol (typically less than two percent) and a larger amount of safe amphiphilic (of or relating to a molecule having a polar, water soluble group attached to a non-polar, water insoluble […]) excipients such as polyethylene glycol (PEG 200, PEG 400) and vitamin E TPGS to enhance the solubility of the compounds. These liquid formulations of highly water insoluble compounds are stable and readily flowable at room temperature. Certain excipients, such as Vitamin E TPGS and BHT may be utilized to enhance the storage stability of sirolimus compounds through their anti-oxidation properties. […]

[4] = system: human coronary artery smooth muscle cells; assay: Antiproliferative effects of PX867 on cultured cells; assay type: cell-based
Source text: A PI3 kinase inhibitor can affect restinosis when administered by local or systemic delivery alone or in combination with sirolimus. FIGS. 87 and 88 illustrate the antiproliferative effects of PX867 on cultured human coronary artery smooth muscle cells alone (FIG. 87) or in combination with sirolimus (FIG. 88). […] Curve 8702 illustrates the percent inhibition for various concentrations. In FIG. 88, the six curves 8802, 8804, 8806, 8808, 8810 and 8812 represent various concentrations of PX867 with various concentrations of sirolimus. […] More specifically, curve 8812 illustrates the percent inhibition for a 240 nM PX-867 concentration. […] This may be compared to curve 8804 which represents a 15 nM PX-867 concentration. As one can see, the percent inhibition increases as the concentration of sirolimus increases. Accordingly, a potent PI3 kinase inhibitor, such as PX-867, can improve the inhibition of coronary artery smooth muscle cell proliferation either as a stand alone treatment or via combination with another restenotic agent, such as sirolimus.

[5] = system: human coronary artery smooth muscle cell; assay: Inhibition of coronary artery smooth muscle cell proliferation by trichostatin A, in vitro cell culture study; assay type: cell-based
Source text: FIG. 51 is a graph of the inhibition of coronary artery smooth muscle cells by trichostatin A in a cell culture study.

[6] = system: tumor cell lines; details: cited from earlier work
[7] = system: cell viability; assay: Cell viability assay; assay type: cell-based
Source text: (§1) The multiple curves represent various concentrations of topotecan ranging from zero to three hundred nanomolar concentrations.
(§2) The multiple curves represent various concentrations of etoposide ranging from zero to eight hundred nanomolar concentrations.

[8] = system: human coronary artery smooth muscle cells; assay: Anti-proliferative activity in synchronized cultured cells stimulated with two percent fetal bovine serum; assay type: cell-based
Source text: as §1, §2
The multiple curves represent various concentrations of Panzem® ranging from zero to 100 micromolar concentrations.

[9] = system: human coronary artery smooth muscle cell; assay: MTS cytotoxicity assay; assay type: cell-based; details: concentrations up to 30,000.00 nanomolar (6.6 to 30,000.00 nanomolar tested)
Source text: Typically, a control is utilized to determine baseline toxicity.

[10] = system: human coronary artery smooth muscle cells; assay: Anti-proliferative activity in non-synchronized cultured cells stimulated with two percent fetal bovine serum; assay type: cell-based
Source text: The multiple curves represent various concentrations of mycophenolic acid ranging from zero to one thousand nanomolar concentrations.
FIG. 58 illustrates, in graphical format, the anti-proliferative activity of cladribine in non-synchronized cultured human coronary artery smooth muscle cells stimulated with two percent fetal bovine serum.
The multiple curves represent various concentrations of cladribine ranging from zero to nine hundred nanomolar concentrations.

[11] = In vivo release kinetics from stent coatings, porcine pharmacokinetics studies
Source text: The topcoat is two hundred micro grams.
(§3) The basecoat is applied to Bx Velocity® stents and implanted into Yorkshire pigs.
as §3

[12] = system: human smooth muscle cells; assay: Cladribine Example: PDGF-stimulated cell proliferation, cell count on day six; assay type: cell-based; details: from IC50 values
Description: To assess the ability of cladribine to prevent cell proliferation, human smooth muscle or endothelial cells (Clonetics, Walkersville, Md.) were seeded at a density of 2000 cells/cm^2 (approximately 3600 cells/well) into each well of 12-well plates and cultured with 1.5 ml of growth medium containing five percent fetal calf serum (FCS). After twenty-four hours, the growth medium was changed and fresh medium containing 10 ng/ml platelet-derived growth factor AB (PDGF AB; LIFE Technologies), as well as various concentrations of cladribine (0.001-10,000 nM) were added with triplicate wells. Medium was replaced with fresh cladribine-containing medium after three days. On day six, cells were detached by trypsinization to yield a cell suspension, lightly centrifuged to pellet and then counted manually using a Neubauer hemocytometer system. Cell viability was assessed by trypan blue exclusion.

SMILES: O=C1CCc2cc(OCCCCc3nnnn3C3CCCCC3)ccc2N1 [cilostazol, 6[4-(1-cyclohexyl-1H-tetrazol-5-yl)-butoxy]-3,4-dihydro-2-(1H)-quinolinone]
in vitro release [1]: ~35%
drug remaining in the drug coating [2]: ~80%

concentration in the final solution (HPLC assay) ([3]; ethanol less than two percent, Vitamin E TPGS, water): 15000 µg/mL
SMILES: CO[C@H]1C[C@@H]2CC[C@@H](C)[C@@](O)(O2)C(=O)C(=O)N2CCCC[C@H]2C(=O)O[C@H]([C@H](C)C[C@@H]2CC[C@@H](OC(=O)C(C)(CO)CO)[C@H](OC)C2)CC(=O)[C@H](C)/C=C(\C)[C@@H](O)[C@@H](OC)C(=O)[C@H](C)C[C@H](C)/C=C/C=C/C=C/1C [CCI-779]

SMILES: COC[C@H]1OC(=O)/C(=C\N2CCCC2)C2=C(O)C(=O)C3=C([C@H](OC(C)=O)C[C@]4(C)C(=O)CC[C@@H]34)[C@]21C [PX-867]
inhibition of coronary artery smooth muscle cell proliferation ([4]; PX867 alone, concentration of about 10^−6 (unit not given)): one hundred
combination with sirolimus ([4]; PX-867 15 to 240 nM with various concentrations of sirolimus): strong synergistic effect

SMILES: CC(/C=C/C(=O)NO)=C\[C@@H](C)C(=O)c1ccc(N(C)C)cc1 [trichostatin A]
inhibition of human coronary artery smooth muscle cell proliferation [5]: completely inhibit
IC50 ([5]; read-out: anti-proliferative IC50): ~6 nM
anti-proliferative IC50's [6]: low nM range

SMILES: CC[C@@]1(O)C(=O)OCc2c1cc1n(c2=O)Cc2cc3c(CN(C)C)c(O)ccc3nc2-1 [Topotecan, topotecan]
cytotoxicity ([7]; concentrations up to one micromolar): non-cytotoxic
effect of addition to cells treated with rapamycin ([8]; topotecan 18.8 to 300 nanomolar): increases the percent inhibition of rapamycin alone

SMILES: COc1cc2c(cc1O)CC[C@@H]1[C@@H]2CC[C@]2(C)[C@@H](O)CC[C@@H]12 [Panzem®, 2-methoxyestradiol]
effect of addition to cells treated with rapamycin ([8]; Panzem 0.813 to 100 micromolar): increases the percent of inhibition of rapamycin alone
inhibition of human coronary artery smooth muscle cell proliferation in vitro ([8]; agent alone): extremely effective inhibitor
human coronary artery smooth muscle cell survival [9]: do not reduce human coronary artery smooth muscle cell survival

SMILES: COc1cc([C@@H]2c3cc4c(cc3[C@@H](O[C@@H]3O[C@@H]5CO[C@@H](C)O[C@H]5[C@H](O)[C@H]3O)[C@H]3COC(=O)[C@H]23)OCO4)cc(OC)c1O [Etoposide, etoposide]
cytotoxicity ([7]; concentrations up to ten micromolar): non-cytotoxic
effect of addition to cells treated with rapamycin ([8]; etoposide 255.7 to eight-hundred nanomolar): increases the percent inhibition of rapamycin alone

in vivo elution from polymeric stent coating, compared with co-loaded drug ([11]; Yorkshire pigs, EVA/BMA basecoat, BMA topcoat, Bx Velocity stents): elutes more rapidly than rapamycin
SMILES: Nc1nc(Cl)nc2c1ncn2[C@H]1C[C@H](O)[C@@H](CO)O1 [Cladribine, 2-chlorodeoxyadenosine]
effect of addition to cells treated with rapamycin ([10]; cladribine 56.25 to 900 nanomolar): increases the percent inhibition of rapamycin alone
inhibition of human coronary artery smooth muscle cell proliferation ([10]; non-synchronized cells, two percent fetal bovine serum): completely inhibits
potency as inhibitor of smooth muscle cells relative to endothelial cells [12]: approximately twice

SMILES: COc1c(C)c2c(c(O)c1C/C=C(\C)CCC(=O)O)C(=O)OC2 [mycophenolic acid]
effect of addition on the anti-proliferative rapamycin dose response curve ([10]; mycophenolic acid zero to one thousand nanomolar, leftward and upward shift): potentiates the anti-proliferative activity of rapamycin
in vivo release from basecoat, compared with co-loaded drug ([11]; porcine, EVA/BMA basecoat with rapamycin and mycophenolic acid 180 μg each, with or without BMA topcoat): elutes more completely over a shorter duration than the rapamycin

drug remaining in the drug coating [2]: ~80%
concentration relative to the solubility of sirolimus in water ([3]; 4 mg/ml formulation): four hundred to about one thousand
SMILES: CO[C@H]1C[C@@H]2CC[C@@H](C)[C@@](O)(O2)C(=O)C(=O)N2CCCC[C@H]2C(=O)O[C@H]([C@H](C)C[C@@H]2CC[C@@H](O)[C@H](OC)C2)CC(=O)[C@H](C)/C=C(\C)[C@@H](O)[C@@H](OC)C(=O)[C@H](C)C[C@H](C)/C=C/C=C/C=C/1C [rapamycin]
in vivo release rate, compared with co-loaded drug ([11]; porcine, PVDF basecoat with PVDF topcoat): slower release rate than that of mycophenolic acid
